Results on 72 molecules are retold here after US7973069B2 (PTC Therapeutics, Inc., priority 2004, dated 2011).

Several values for one entry are separate records, joined by “and”; a condition that tells them apart may be missing. Equal entries are not always repeated. Bounds are passed on as bounds.

The subject of this assay is HCV replicon. It counts as cell-based.
As for `CCOc1ccc2c(C#N)c(-c3ccc(NC(=O)C4CCC4)cc3)n(CC)c2c1` [Compound 899], the 50% inhibitory concentration (IC50) lay within 0.5 to 2 µM.
For `CCn1c(-c2ccc(NC(=O)OCCF)cc2)c(C#N)c2ccc(OCCCCl)cc21` [Compound 1033] the value was less than 0.5 µM.
Take `CCCn1c(-c2cccc(NS(=O)(=O)CC)c2)c(C#N)c2cc(OCc3ccccc3)ccc21` [Compound 919]: the half-inhibitory concentration (IC50) lay within 0.5 to 2 µM.
For `CCCOc1ccc2c(C#N)c(-c3ccc(NC(=O)OCC)cc3)n(C(C)C)c2c1` [Compound 1202] the value was less than 0.5 µM; for `CCOc1ccc2c(C#N)c(-c3ccc(NC(=O)OC4CCCC4)nc3)n(C3CCC3)c2c1` [Compound 1145], 0.5 to 2 µM.
On to `CCn1c(-c2ccc(NC(=O)NCCCl)cc2)c(C#N)c2ccc(OCCCN3CCOCC3)cc21` [Compound 1126], for which the concentration for half-maximal inhibition (IC50) lay in the range of 0.5 to 2 µM.
As for `CC(C)NC(=O)Nc1ccc(-c2c(C#N)c3ccc(OCCn4cncn4)cc3n2C2CCC2)cc1` [Compound 1318], the IC50 is less than 0.5 µM.
For `CCn1c(-c2ccc(NC(=O)OCc3ccccc3)cc2)c(C#N)c2ccc(OCCF)cc21` [Compound 948], the IC50 was less than 0.5 µM.
Consider `CCOc1ccc2c(C#N)c(-c3ccc(NC(=O)OCCF)cc3)n(C3CCC3)c2c1` [Compound 974], for which the concentration for half-maximal inhibition (IC50) was less than 0.5 µM.
`CCOc1ccc2c(C#N)c(-c3ccc(NC(=O)OC4(C)CCCC4)cc3)n(C3CCC3)c2c1` [Compound 1209] displayed an IC50 of less than 0.5 µM.
As for `CCOc1ccc2c(c1)c(C#N)c(-c1ccc(NC(=O)OC3CCOC3)cc1)n2C1CCC1` (stereo not drawn) [Compound 1297], the half-inhibitory concentration (IC50) is 0.5 to 2 µM.
For `CCn1c(-c2ccc(NC(=O)NC(C)C)cc2)c(C#N)c2ccc(OCCF)cc21` [Compound 956] the value was less than 0.5 µM; for `COc1ccc2c(C#N)c(-c3ccc(NC(=O)OCc4ccccc4)cc3)n(C3CCC3)c2c1` [Compound 1079], less than 0.5 µM.
Take `CCOc1ccc2c(C#N)c(-c3ccc(NC(=O)NC(C)C)cc3)n(CC3CCC3)c2c1` [Compound 1171]: the half-maximal inhibitory concentration (IC50) was less than 0.5 µM.
In turn, `CCn1c(-c2ccc(NC(=O)CCc3ccccc3)cc2)c(C#N)c2ccc(OC(F)(F)F)cc21` [Compound 916] showed an IC50 of 0.5 to 2 µM.
On to `CCn1c(-c2ccc(NS(=O)(=O)C3CC3)cc2)c(C#N)c2cc3c(cc21)OCO3` [Compound 1038], for which the IC50 lay within 0.5 to 2 µM.
Molecule `CCOc1ccc2c(C#N)c(-c3ccc(NC(=O)OCCOC)cc3)n(C3CCC3)c2c1` [Compound 975] showed an IC50 of 0.5 to 2 µM.
For the molecule `CCn1c(-c2ccc(NC(=O)C3CC3)cc2)c(C#N)c2ccc(OCCN(C)CCOC)cc21` [Compound 1091], the 50% inhibitory concentration (IC50) lay within 0.5 to 2 µM.
`CCCS(=O)(=O)Nc1ccc(-c2c(C#N)c3ccc(OCC)cc3n2C2CCC2)cc1` [Compound 932] yielded a half-maximal inhibitory concentration (IC50) of less than 0.5 µM.
In the case of `CCCS(=O)(=O)Nc1ccc(-c2c(C#N)c3ccc(OCCF)cc3n2C2CCC2)cc1` [Compound 1175], the IC50 was less than 0.5 µM.
Regarding `CCn1c(-c2ccc(N(C)S(=O)(=O)CC)cc2)c(C#N)c2ccc(C(F)(F)F)cc21` [Compound 1005], the IC50 was 0.5 to 2 µM.
Consider `CCOc1ccc2c(C#N)c(-c3ccc(NC(=O)OCC(C)C)cc3)n(CC3CC3)c2c1` [Compound 1151], for which the 50% inhibitory concentration (IC50) was less than 0.5 µM.
The molecule `CCN(CC)CCCOc1ccc2c(C#N)c(-c3ccc(NC(=O)OC(C)C)cc3)n(C3CCC3)c2c1` [Compound 1260] gave a half-maximal inhibitory concentration (IC50) of less than 0.5 µM.
For `CCCS(=O)(=O)Nc1ccc(-c2c(C#N)c3ccc(OC)cc3n2CC)cc1C` [Compound 961], the IC50 is 0.5 to 2 µM.
For `CCNC(=O)Nc1ccc(-c2c(C#N)c3ccc(OCC)cc3n2CC2CC2)cc1` [Compound 1156] the value was less than 0.5 µM; for `CCn1c(-c2ccc(NC(=O)C3CC3)cc2)c(C#N)c2ccc(OCCN3CCCC3)cc21` [Compound 1054], 0.5 to 2 µM.
Molecule `N#Cc1c(-c2ccc(NC(=O)NC3CCCC3)cc2)n(C2CCC2)c2cc(OC(F)F)ccc12` [Compound 1190] had a half-inhibitory concentration (IC50) of 0.5 to 2 µM.
As for `CCOc1ccc2c(C#N)c(-c3ccc(NC(=O)OCC4CCCO4)cc3)n(C3CCC3)c2c1` (stereo not drawn) [Compound 1240], the 50% inhibitory concentration (IC50) is less than 0.5 µM.
For `CC(C)OC(=O)Nc1ccc(-c2c(C#N)c3ccc(OCCCn4ccnc4)cc3n2C2CCC2)cc1` [Compound 1254] the value was less than 0.5 µM; for `CCOc1ccc2c(C#N)c(-c3ccc(N)cc3)n(C3CCC3)c2c1` [Compound 939], 0.5 to 2 µM; for `COCCn1c(-c2ccc(N3CCCS3(=O)=O)cc2)c(C#N)c2ccc(OC(F)(F)F)cc21` [Compound 906], 0.5 to 2 µM.
For the molecule `CCNC(=O)Nc1ccc(-c2c(C#N)c3cc(OC)ccc3n2CC)cc1` [Compound 1009], the IC50 was in the range of 0.5 to 2 µM.
`CCCOc1ccc2c(C#N)c(-c3ccc(NC(=O)OC(C)C)cc3)n(C(C)C)c2c1` [Compound 1204] had an IC50 of less than 0.5 µM.
In turn, `COc1ccc2c(c1)c(C#N)c(-c1ccc(NC(=O)OCC(C)C)cc1)n2C1CCC1` [Compound 1178] registered an IC50 of less than 0.5 µM.
In turn, `COc1ccc2c(C#N)c(-c3ccc(NC(=O)C4CC4)cc3)n(CC3CC3)c2c1` [Compound 983] yielded a half-maximal inhibitory concentration (IC50) of 0.5 to 2 µM.
Molecule `CCCn1c(-c2ccc(NS(=O)(=O)C(C)C)cc2)c(C#N)c2cc(OC)ccc21` [Compound 997] returned an IC50 of 0.5 to 2 µM.
`CC(C)OC(=O)Nc1ccc(-c2c(C#N)c3ccc(Oc4ncccn4)cc3n2C(C)C)cc1` [Compound 2392] had an IC50 of less than 0.5 µM.
For `CCn1c(-c2ccc(NC(=O)NC)cc2)c(C#N)c2ccc(OCCCN3CCOCC3)cc21` [Compound 1118] the value was 0.5 to 2 µM; for `CCCOC(=O)Nc1ccc(-c2c(C#N)c3ccc(OC(F)(F)F)cc3n2CC)cc1` [Compound 889], 0.5 to 2 µM.
With `CCOc1ccc2c(C#N)c(-c3ccc(N)cc3)n(C3CC3)c2c1` [Compound 1245], the IC50 was in the range of 0.5 to 2 µM.
In turn, `CCOc1ccc2c(C#N)c(-c3ccc(NC(=O)OC(C)(C)C)cc3)n(C3CCC3)c2c1` [Compound 1072] returned an IC50 of less than 0.5 µM.
`CCCCNC(=O)Nc1ccc(-c2c(C#N)c3ccc(OCC)cc3n2C(C)C)cc1` [Compound 1101] showed a half-inhibitory concentration (IC50) of less than 0.5 µM.
Regarding `COc1ccc2c(c1)c(C#N)c(-c1ccc(NS(=O)(=O)C3CC3)cc1)n2C1CCC1` [Compound 1182], the IC50 is < 0.5 µM and > 2 µM.
`CCOc1ccc2c(C#N)c(-c3ccc(NC(=O)NCCc4ccccc4)cc3)n(C(C)C)c2c1` [Compound 1102] registered a concentration for half-maximal inhibition (IC50) of less than 0.5 µM.
For `CCn1c(-c2ccc(NC(=O)OCCF)cc2)c(C#N)c2ccc(OC(F)(F)F)cc21` [Compound 888] the value was 0.5 to 2 µM; for `CCOc1ccc2c(C#N)c(-c3ccc(NC(=O)OC4CCOC4)cc3)n(C3CCC3)c2c1` (stereo not drawn) [Compound 1215], less than 0.5 µM; for `CCCCNC(=O)Nc1ccc(-c2c(C#N)c3ccc(OC)cc3n2CC)cc1F` [Compound 910], 0.5 to 2 µM.
`CCOc1ccc2c(C#N)c(-c3ccc(NS(=O)(=O)C4CC4)cc3)n(C3CCCC3)c2c1` [Compound 1141] yielded an IC50 of 0.5 to 2 µM.
For `CCCS(=O)(=O)Nc1ccc(-c2c(C#N)c3cc(OCC)ccc3n2C2CCC2)cc1` [Compound 1229] the value was 0.5 to 2 µM.
For the molecule `CCOC(=O)Nc1ccc(-c2c(C#N)c3ccc(OC(F)(F)F)cc3n2CC)cc1` [Compound 887], the IC50 was 0.5 to 2 µM.
For `CCn1c(-c2ccc(NC(=O)OCCF)cc2)c(C#N)c2ccc(OCCCN3CCOCC3)cc21` [Compound 1113], the IC50 lay in the range of 0.5 to 2 µM.
For `CC(C)OC(=O)Nc1ccc(-c2c(C#N)c3ccc(OCCNC4CC4)cc3n2C2CCC2)cc1` [Compound 1279] the value was less than 0.5 µM; for `CCCS(=O)(=O)Nc1ccc(-c2c(C#N)c3ccc(OC(F)(F)F)cc3n2CC)cc1` [Compound 882], less than 0.5 µM.
Regarding `CCOc1ccc2c(C#N)c(-c3ccc(NC(=O)NC4CCCC4)cc3)n(C3CCCC3)c2c1` [Compound 1214], the IC50 is less than 0.5 µM.
For `CCCOC(=O)Nc1ccc(-c2c(C#N)c3ccc(OC)cc3n2CC)cc1C` [Compound 965], the IC50 lay within 0.5 to 2 µM.
For `CC(C)OC(=O)Nc1ccc(-c2c(C#N)c3ccc(OCCN4CCCC4)cc3n2C2CCC2)cc1` [Compound 1142], the IC50 is less than 0.5 µM.
Molecule `CCCn1c(-c2ccc(NS(C)(=O)=O)cc2)c(C#N)c2ccc(OCc3ccccc3)cc21` [Compound 921] came in with an IC50 of 0.5 to 2 µM.
For the molecule `CCCOc1ccc2c(C#N)c(-c3ccc(NC(=O)OC4CCCC4)cc3)n(C(C)C)c2c1` [Compound 1205], the IC50 is less than 0.5 µM.
`CC(C)OC(=O)Nc1ccc(-c2c(C#N)c3ccc(OCCCN4CCN(C)CC4)cc3n2C2CCC2)cc1` [Compound 1261] yielded a half-maximal inhibitory concentration (IC50) of less than 0.5 µM.
For `CCCOc1ccc2c(C#N)c(-c3ccc(NC(=O)OC4CCOCC4)cc3)n(C(C)C)c2c1` [Compound 1248] the value was less than 0.5 µM.
Take `N#Cc1c(-c2ccc(NC(=O)NC3CCC3)cc2)n(C2CCC2)c2cc(OCC3CCCO3)ccc12` (stereo not drawn) [Compound 1288]: the IC50 was less than 0.5 µM.
Consider `CCCCNC(=O)Nc1cccc(-c2c(C#N)c3ccc(OCC)cc3n2CCCC)c1` [Compound 1023], for which the 50% inhibitory concentration (IC50) is 0.5 to 2 µM.
Molecule `CCCCNC(=O)Nc1ccc(-c2c(C#N)c3ccc(OCC)cc3n2CC)cc1` [Compound 951] had an IC50 of 0.5 to 2 µM.
As for `CCNC(=O)Nc1cccc(-c2c(C#N)c3ccc(OCCCN4CCCC4)cc3n2CC)c1` [Compound 1045], the IC50 is less than 0.5 µM.
As for `CCn1c(-c2ccc(N)c(C)c2)c(C#N)c2ccc(OC)cc21` [Compound 927], the IC50 was 0.5 to 2 µM.
Turning to `CCCNC(=O)Nc1ccc(-c2c(C#N)c3ccc(OC)cc3n2CC)cc1C` [Compound 967], the IC50 was 0.5 to 2 µM.
Molecule `CCCS(=O)(=O)Nc1ccc(-c2c(C#N)c3ccc(OC(F)F)cc3n2C(C)C)cc1` [Compound 867] came in with an IC50 of 0.5 to 2 µM.
Consider `CC(C)NC(=O)Nc1ccc(-c2c(C#N)c3ccc(OCCN4CCC4)cc3n2C2CCC2)cc1` [Compound 1316], for which the IC50 was less than 0.5 µM.
`CCn1c(-c2ccc(NC(=O)C3CC3)cc2)c(C#N)c2ccc(OCCN3CCOCC3)cc21` [Compound 1025] showed an IC50 of 0.5 to 2 µM.
For `CC(C)NC(=O)Nc1ccc(-c2c(C#N)c3ccc(OCCF)cc3n2C2CCC2)cc1` [Compound 1108] the value was less than 0.5 µM; for `CCCCn1c(-c2cccc(NC(=O)OCCC)c2)c(C#N)c2ccc(OCC)cc21` [Compound 1021], less than 0.5 µM.
`CCOc1ccc2c(C#N)c(-c3ccc(NC(=O)NC(C)C)cc3)n(CC3CC3)c2c1` [Compound 1120]: the IC50 is less than 0.5 µM.

By IC50 is commonly meant the concentration needed to halve the response being measured. Low readings indicate greater potency, high ones weaker potency.
